The target in one assay is KRas G12D (Homo sapiens, UniProt P01116, G12D). Nature of the assay: biochemical.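 Note: TR-FRET displacement binding assay on KRas, read after a one-hour incubation at room temperature, IC50 fitted from percent-of-control values.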
The target in a further assay is T1, KRas Q61H (Homo sapiens, UniProt P01116, Q61H).
T1 construct: Biotinylated KRas (corresponding to amino acids 1-169, produced at Accelegan Inc.); biotin (biotinylated); purchased Accelegan Inc
Put plainly: KRas binding assay (TR-FRET displacement).

The next assay has as its target KRas G12C (Homo sapiens, UniProt P01116, G12C). Nature of the assay: biochemical.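 Note: binding to KRas assessed by TR-FRET displacement after one hour incubation at room temperature, potency fitted from percent-of-control values.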
The next assay addresses KRas G12R (Homo sapiens, UniProt P01116, G12R). Put plainly: biochemical.
For another assay, the target named is KRas G12V (Homo sapiens, UniProt P01116, G12V). Nature of the assay: biochemical.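 Note: KRas binding measured by TR-FRET displacement at room temperature, IC50 fitted from percent of control values.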
Sequence of KRas G12V (P01116 1-169 isoform P01116-2 G12V): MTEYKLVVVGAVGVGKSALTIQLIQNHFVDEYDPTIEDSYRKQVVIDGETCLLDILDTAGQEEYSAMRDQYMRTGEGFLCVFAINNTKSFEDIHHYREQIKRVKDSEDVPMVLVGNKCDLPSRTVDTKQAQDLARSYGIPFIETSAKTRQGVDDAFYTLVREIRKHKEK
Another assay has as its target KRas G12S (Homo sapiens, UniProt P01116, G12S). Nature of the assay: biochemical.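 Note: TR-FRET displacement binding to KRas, read after one hour incubation at room temperature, IC50 from four-parameter fit of percent of control.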
Another assay deals with KRas G12A (Homo sapiens, UniProt P01116, G12A). Nature of the assay: biochemical.
Sequence of KRas G12A (P01116 1-169 isoform P01116-2 G12A): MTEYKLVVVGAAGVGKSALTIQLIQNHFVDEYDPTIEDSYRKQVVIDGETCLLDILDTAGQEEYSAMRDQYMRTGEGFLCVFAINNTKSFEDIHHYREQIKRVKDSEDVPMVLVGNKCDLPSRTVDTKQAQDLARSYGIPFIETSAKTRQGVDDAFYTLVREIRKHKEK
Another assay addresses KRas WT (Homo sapiens, UniProt P01116). Nature of the assay: biochemical.
Another assay deals with T2, KRas G13D (Homo sapiens, UniProt P01116, G13D).
T2 construct: Biotinylated KRas (corresponding to amino acids 1-169, produced at Accelegan Inc.); biotin (biotinylated); purchased Accelegan Inc
T2 sequence (P01116 1-169 isoform P01116-2 G13D): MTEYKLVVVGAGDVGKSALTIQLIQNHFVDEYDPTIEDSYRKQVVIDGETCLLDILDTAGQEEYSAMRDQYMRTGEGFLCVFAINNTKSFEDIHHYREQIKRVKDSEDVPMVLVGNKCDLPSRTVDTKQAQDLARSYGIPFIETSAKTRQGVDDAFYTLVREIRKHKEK
Put plainly: KRas binding assay (TR-FRET displacement).

For six compounds, IC50 results are on record in US12398154B2, “Azaquinazoline pan-KRas inhibitors” (Mirati Therapeutics, Inc., priority 2020, dated 2025).

The IC50 is the midpoint of a concentration-inhibition curve. High values mean a need for much substance, low ones inhibition by little substance.

Sequence of KRas WT (P01116 1-169 isoform P01116-2): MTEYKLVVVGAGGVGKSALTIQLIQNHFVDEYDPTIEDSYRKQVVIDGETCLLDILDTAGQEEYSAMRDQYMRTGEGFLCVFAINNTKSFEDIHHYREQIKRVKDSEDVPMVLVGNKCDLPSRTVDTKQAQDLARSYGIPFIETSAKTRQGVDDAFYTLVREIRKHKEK
T1 sequence (P01116 1-169 isoform P01116-2 Q61H): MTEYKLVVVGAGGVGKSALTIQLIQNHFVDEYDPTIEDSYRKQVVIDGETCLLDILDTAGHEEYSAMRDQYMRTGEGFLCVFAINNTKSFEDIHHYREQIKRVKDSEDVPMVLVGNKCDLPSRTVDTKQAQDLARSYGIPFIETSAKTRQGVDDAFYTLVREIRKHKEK
Sequence of KRas G12C (P01116 1-169 isoform P01116-2 G12C): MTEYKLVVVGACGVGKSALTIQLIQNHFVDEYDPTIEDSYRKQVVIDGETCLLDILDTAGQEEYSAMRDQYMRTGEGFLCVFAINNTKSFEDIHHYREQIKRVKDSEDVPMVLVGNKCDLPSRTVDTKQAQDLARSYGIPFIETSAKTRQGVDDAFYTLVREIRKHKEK
Sequence of KRas G12S (P01116 1-169 isoform P01116-2 G12S): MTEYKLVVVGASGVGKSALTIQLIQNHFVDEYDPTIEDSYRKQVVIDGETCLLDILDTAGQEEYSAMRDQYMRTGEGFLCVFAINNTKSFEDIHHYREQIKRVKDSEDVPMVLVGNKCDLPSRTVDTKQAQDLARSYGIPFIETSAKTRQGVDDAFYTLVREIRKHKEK
Sequence of KRas G12D (P01116 1-169 isoform P01116-2 G12D): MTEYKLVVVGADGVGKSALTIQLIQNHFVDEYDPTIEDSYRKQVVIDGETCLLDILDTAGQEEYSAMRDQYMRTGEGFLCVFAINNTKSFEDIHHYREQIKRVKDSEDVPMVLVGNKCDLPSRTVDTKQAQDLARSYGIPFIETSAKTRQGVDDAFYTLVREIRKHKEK
Sequence of KRas G12R (P01116 1-169 isoform P01116-2 G12R): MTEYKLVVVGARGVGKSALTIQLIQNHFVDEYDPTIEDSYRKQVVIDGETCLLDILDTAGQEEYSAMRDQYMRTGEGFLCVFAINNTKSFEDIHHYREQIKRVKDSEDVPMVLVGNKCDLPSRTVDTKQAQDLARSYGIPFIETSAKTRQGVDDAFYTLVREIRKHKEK

Regarding `Fc1c(-c2cccc3cccc(F)c23)ncc2c(NCCCn3ccnn3)nc(OCC34CCCN3CCC4)nc12` [Example 118, N-(3-(1H-1,2,3-triazol-1-yl)propyl)-8-fluoro-7-(8-fluoronaphthalen-1-yl)-2-((tetrahydro-1H-pyrrolizin-7a(5H)-yl)methoxy)pyrido[4,3-d]pyrimidin-4-amine], the IC50 at KRas G12D is 16.1 µM; on KRas Q61H, 14000 nM; on KRas G12C it was 7.45 µM; against KRas G12R, 11.3 µM; at KRas G12V, 7.53 µM; at KRas G12S, 6.24 µM. Moreover, the 50% inhibitory concentration (IC50) on KRas G12A was determined as 8.14 µM; against KRas WT, 8.55 µM; on KRas G13D, 8810 nM.
As to `Fc1c(-c2cccc3cccc(F)c23)ncc2c(NCCCn3cnnn3)nc(OCC34CCCN3CCC4)nc12` [Example 119, N-(3-(1H-tetrazol-1-yl)propyl)-8-fluoro-7-(8-fluoronaphthalen-1-yl)-2-((tetrahydro-1H-pyrrolizin-7a(5H)-yl)methoxy)pyrido[4,3-d]pyrimidin-4-amine], the IC50 came out at 31.9 µM against KRas G12D; 27600 nM at KRas Q61H; 11.6 µM against KRas G12C; 15.6 µM against KRas G12R; 18 µM against KRas G12V; 14.6 µM at KRas G12S. Besides, the IC50 came to 14.4 µM on KRas G12A, 15.7 µM against KRas WT and 17200 nM at KRas G13D.
Regarding `Oc1cccc2c1CN(c1nc(OCC34CCCN3CCC4)nc3c(F)c(-c4cccc5cccc(F)c45)ncc13)C2` [Example 120, 2-(8-fluoro-7-(8-fluoronaphthalen-1-yl)-2-((tetrahydro-1H-pyrrolizin-7a(5H)-yl)methoxy)pyrido[4,3-d]pyrimidin-4-yl)isoindolin-4-ol], the IC50 is ≥ 100 µM on KRas G12D; ≥ 100000 nM at KRas Q61H; 19.8 µM at KRas G12C; ≥ 100 µM against KRas G12R; ≥ 100 µM against KRas G12V; 85.3 µM against KRas G12S. The concentration for half-maximal inhibition (IC50) is 33.3 µM at KRas G12A, 34.1 µM against KRas WT and ≥ 100000 nM on KRas G13D.
On to `Fc1c(-c2cccc3cccc(F)c23)ncc2c(NCc3nnc4ncccn34)nc(OCC34CCCN3CCC4)nc12` [Example 121, N-([1,2,4]triazolo[4,3-a]pyrimidin 3 ylmethyl) 8-fluoro-7-(8-fluoronaphthalen-1-yl)-2-((tetrahydro-1H-pyrrolizin-7a(5H)-yl)methoxy)pyrido[4,3-d]pyrimidin-4-amine], for which the IC50 against KRas G12D was 42.8 µM; on KRas Q61H it was 25400 nM; against KRas G12C, 9.1 µM; against KRas G12R it was 12.3 µM; against KRas G12V, 6.64 µM; against KRas G12S it was 18.6 µM. Moreover, the half-inhibitory concentration (IC50) is 15.5 µM against KRas G12A, 13 µM against KRas WT and 17300 nM at KRas G13D.
Consider `Fc1c(-c2cccc3cccc(F)c23)ncc2c(NCc3nnc4cccnn34)nc(OCC34CCCN3CCC4)nc12` [Example 122, N-([1,2,4]triazolo[4,3-b]pyridazin-3-ylmethyl)-8-fluoro-7-(8-fluoronaphthalen-1-yl)-2-((tetrahydro-1H-pyrrolizin-7a(5H)-yl)methoxy)pyrido[4,3-d]pyrimidin-4-amine], for which the concentration for half-maximal inhibition (IC50) was ≥ 100 µM on KRas G12D; 88200 nM at KRas Q61H; 3.47 µM at KRas G12C; 12.4 µM against KRas G12R; 6.91 µM at KRas G12V; 21.7 µM against KRas G12S. For the same compound, the IC50 is 14.4 µM on KRas G12A, 26 µM against KRas WT and 86400 nM on KRas G13D.
In the case of `Fc1c(-c2cccc3cccc(F)c23)ncc2c(N3CC=CCC3)nc(OCC34CCCN3CCC4)nc12` [Example 123, 4-(3,6-dihydropyridin-1 (2H)-yl)-8-fluoro-7-(8-fluoronaphthalen-1-yl)-2-((tetrahydro-1H-pyrrolizin-7a(5H)-yl)methoxy)pyrido[4,3-d]pyrimidine], the IC50 against KRas G12D worked out at 4.44 µM; at KRas Q61H it was 4980 nM; against KRas G12C it was 2.34 µM; against KRas G12R it was 7.5 µM; against KRas G12V it was 3.19 µM; against KRas G12S, 2.76 µM. Besides, the results for the IC50 on KRas G12A, against KRas WT and on KRas G13D were 3.18 µM, 3.5 µM and 3480 nM, respectively.
